Where two headings read alike, the source gives them in different places.
What was measured:
[1] = target: T1, MAGL (Mus musculus (Mouse), UniProt O35678); assay: In vitro competitive activity-based protein profiling (mouse brain membrane fraction or cell lysates), MAGL band; type: biochemical; settings: for inhibition at 1 µM: read-out: MAGL % Inh 1 μM (mouse); for IC50: competitive ABPP
Protocol: In Vitro Competitive Activity-Based Protein Profiling.
Proteomes (mouse brain membrane fraction or cell lysates) (50 μL, 1.0 mg/mL total protein concentration) were preincubated with varying concentrations of inhibitors at 37° C. After 30 min, FP—Rh (1.0 μL, 50 μM in DMSO) was added and the mixture was incubated for another 30 min at 37° C. Reactions were quenched with SDS loading buffer (50 μL-4×) and run on SDS-PAGE.

[2] = target: T1, MAGL; assay: Mouse brain proteomes from inhibitor treated mice (oral gavage, sacrificed 4 h after administration, ABPP analysis); type: in vivo, mouse (C57Bl/6J); settings: 5 mg/kg oral gavage
Procedure, shortened: (§1)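 Values give % inhibition in brain after a 5 mg/kg oral gavage dose to wild-type C57Bl/6J mice, with vehicle e.g. PEG400/Ethanol/PBS (7/2/1). Animals were killed 4 h post-dose and brain proteome activity was read by ABPP.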

[3] = target: T2, FAAH (Mus musculus (Mouse), UniProt O08914); assay: In vitro competitive activity-based protein profiling (mouse brain membrane fraction or cell lysates), FAAH band; type: biochemical; settings: for inhibition at 1 µM: read-out: FAAH % Inh 1 μM (mouse); for IC50: competitive ABPP
T2 sequence (O08914 whole entry): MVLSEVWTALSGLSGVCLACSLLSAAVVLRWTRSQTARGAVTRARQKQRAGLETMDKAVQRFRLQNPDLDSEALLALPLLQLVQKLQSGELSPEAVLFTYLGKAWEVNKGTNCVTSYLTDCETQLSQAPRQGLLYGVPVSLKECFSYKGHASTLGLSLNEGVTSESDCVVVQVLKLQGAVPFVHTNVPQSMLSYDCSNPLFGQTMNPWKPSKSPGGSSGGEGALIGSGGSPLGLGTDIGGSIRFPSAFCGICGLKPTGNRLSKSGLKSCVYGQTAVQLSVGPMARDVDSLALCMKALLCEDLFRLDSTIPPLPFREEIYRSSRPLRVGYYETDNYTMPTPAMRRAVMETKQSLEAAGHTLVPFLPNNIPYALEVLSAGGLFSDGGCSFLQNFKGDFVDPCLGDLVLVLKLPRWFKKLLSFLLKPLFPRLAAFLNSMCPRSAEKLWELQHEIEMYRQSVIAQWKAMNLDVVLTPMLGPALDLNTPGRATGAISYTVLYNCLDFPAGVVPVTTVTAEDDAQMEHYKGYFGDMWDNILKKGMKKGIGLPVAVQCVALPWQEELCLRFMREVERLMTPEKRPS
Procedure, shortened: (§2)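 Residual hydrolase activity was measured as gel band fluorescence after FP-Rh labelling (30 min, 37° C) of proteomes pretreated 30 min at 37° C with inhibitor.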

[4] = target: T2, FAAH; assay: Mouse brain proteomes from inhibitor treated mice (oral gavage, sacrificed 4 h after administration, ABPP analysis), FAAH; type: in vivo, mouse (C57Bl/6J); settings: 5 mg/kg oral gavage
Procedure, shortened: as §1

[5] = target: T3, ABHD6 (Mus musculus (Mouse), UniProt Q8R2Y0); assay: Mouse brain proteomes from inhibitor treated mice (oral gavage, sacrificed 4 h after administration, ABPP analysis), ABHD6; type: in vivo, mouse (C57Bl/6J); settings: 5 mg/kg oral gavage
T3 sequence (Q8R2Y0 whole entry): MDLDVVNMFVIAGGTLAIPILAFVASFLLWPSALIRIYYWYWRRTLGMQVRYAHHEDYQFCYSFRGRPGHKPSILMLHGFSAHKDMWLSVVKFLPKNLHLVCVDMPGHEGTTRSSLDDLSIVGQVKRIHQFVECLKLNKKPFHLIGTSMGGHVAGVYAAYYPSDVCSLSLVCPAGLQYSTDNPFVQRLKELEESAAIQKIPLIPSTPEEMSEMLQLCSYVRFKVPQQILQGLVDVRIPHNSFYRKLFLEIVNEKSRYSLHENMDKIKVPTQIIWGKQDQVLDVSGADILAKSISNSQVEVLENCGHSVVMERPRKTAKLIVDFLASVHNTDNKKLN
Procedure, shortened: as §1

[6] = target: T3, ABHD6; assay: In vitro competitive activity-based protein profiling (mouse brain membrane fraction or cell lysates), ABHD6 band; type: biochemical; settings: for inhibition at 1 µM: read-out: ABHD6 % Inh 1 μM (mouse); for IC50: competitive ABPP
Procedure, shortened: as §2

[7] = target: MAGL (Homo sapiens (Human), UniProt Q99685); assay: In vitro competitive activity-based protein profiling (human prefrontal cortex or cell membrane fractions; hMAGL expressed in HEK293T cells); type: biochemical
Chain of MAGL (Homo sapiens (Human), UniProt Q99685) (Q99685 whole entry): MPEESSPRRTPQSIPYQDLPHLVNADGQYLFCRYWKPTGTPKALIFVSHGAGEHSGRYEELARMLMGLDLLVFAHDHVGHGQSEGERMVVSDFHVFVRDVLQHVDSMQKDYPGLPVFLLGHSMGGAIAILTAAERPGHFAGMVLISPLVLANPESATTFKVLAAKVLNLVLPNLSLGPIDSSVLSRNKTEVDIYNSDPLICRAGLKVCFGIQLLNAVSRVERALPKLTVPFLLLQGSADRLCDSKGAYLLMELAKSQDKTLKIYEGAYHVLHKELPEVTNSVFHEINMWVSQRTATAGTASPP
Procedure, shortened: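 Human prefrontal cortex or cell membrane proteomes (1.0-2.0 mg/mL), or lysates of HEK293T cells expressing hMAGL diluted into mock proteome, preincubated with inhibitor 30 min at 37° C. FP-Rh or JW912 probe then added for 30 min at room temperature. Residual labeling resolved by SDS-PAGE.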

[8] = human proteome, competitive ABPP

T1 sequence (O35678 whole entry): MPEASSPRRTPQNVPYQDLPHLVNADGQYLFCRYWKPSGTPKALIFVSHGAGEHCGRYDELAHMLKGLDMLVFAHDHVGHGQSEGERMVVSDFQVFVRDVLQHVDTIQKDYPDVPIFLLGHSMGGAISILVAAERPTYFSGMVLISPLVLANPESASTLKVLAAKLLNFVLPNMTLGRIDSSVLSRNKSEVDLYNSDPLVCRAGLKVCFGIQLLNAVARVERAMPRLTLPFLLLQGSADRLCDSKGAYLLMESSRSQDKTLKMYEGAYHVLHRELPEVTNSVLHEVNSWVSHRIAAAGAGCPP

Row | inhibition at 1 µM ([1]; mouse proteome) | MAGL % Inh 5 mg/kg (mouse) [2] | inhibition at 1 µM ([3]; mouse proteome) | FAAH % Inh 5 mg/kg (mouse) [4] | ABHD6 % Inh 5 mg/kg (mouse) [5] | inhibition at 1 µM ([6]; mouse proteome) | IC50 [7, 8] | inhibition at 1 µM ([1]; mouse) | inhibition at 1 µM ([3]; mouse) | inhibition at 1 µM ([6]; mouse) | IC50 ([7]; human) | IC50 ([1]; mouse proteome) | IC50 ([3]; mouse proteome) | IC50 ([6]; mouse proteome) | SMILES
1 | – | # (# is <25%) | – | # (# is <25%) | # (# is <25%) | – | – | > 75% | < 25% | ≥ 75% | < 100 nM | – | – | – | CS(=O)(=O)C1CCN(c2cc(C(F)(F)F)ccc2CN2CCCC23CCN(C(=O)OC(C(F)(F)F)C(F)(F)F)CC3)CC1 [Example 267]
2 | > 75% | ### (### is ≥75%) | < 25% | # (# is <25%) | # (# is <25%) | < 25% | < 100 nM | – | – | – | – | < 100 nM | > 1000 nM | > 1000 nM | CN1CCCc2ccc(CN3CCCC34CCN(C(=O)OC(C(F)(F)F)C(F)(F)F)CC4)cc21 [Example 68, 1,1,1,3,3,3-Hexafluoropropan-2-yl 1-((1-methyl-1,2,3,4-tetrahydroquinolin-7-yl)methyl)-1,8-diazaspiro[4.5]decane-8-carboxylate]
3 | > 75% | # (# is <25%) | < 25% | # (# is <25%) | # (# is <25%) | < 25% | < 100 nM | – | – | – | – | < 100 nM | > 1000 nM | > 1000 nM | CC1(C(=O)O)CN(c2cc(CN3CCCC34CCN(C(=O)OC(C(F)(F)F)C(F)(F)F)CC4)cc(C(F)(F)F)c2)CCO1 (centres unmarked) [Example 195, 4-(3-((8-(((1,1,1,3,3,3-hexafluoropropan-2-yl)oxy)carbonyl)-1,8-diazaspiro[4.5]decan-1-yl)methyl)-5-(trifluoromethyl)phenyl)-2-methylmorpholine-2-carboxylic acid]
4 | > 75% | ### (### is ≥75%) | < 25% | # (# is <25%) | # (# is <25%) | < 25% | < 100 nM | – | – | – | – | < 100 nM | > 1000 nM | > 1000 nM | O=C(O)C1CCN(c2cc(C(F)(F)F)ccc2CN2CCCC23CCN(C(=O)OC(C(F)(F)F)C(F)(F)F)CC3)CC1 [Example 121, 1-(2-((8-(((1,1,1,3,3,3-Hexafluoropropan-2-yl)oxy)carbonyl)-1,8-diazaspiro[4.5]decan-1-yl)methyl)-5-(trifluoromethyl)phenyl)piperidine-4-carboxylic acid]
5 | > 75% | # (# is <25%) | < 25% | # (# is <25%) | # (# is <25%) | 25 to 75% | < 100 nM | – | – | – | – | 100 to 1000 nM | > 1000 nM | > 1000 nM | O=C(O)C1CN(c2cc(C(F)(F)F)ccc2CN2CCCC23CCN(C(=O)OC(C(F)(F)F)C(F)(F)F)CC3)CCO1 (centres unmarked) [Example 197, 4-(2-((8-(((1,1,1,3,3,3-Hexafluoropropan-2-yl)oxy)carbonyl)-1,8-diazaspiro[4.5]decan-1-yl)methyl)-5-(trifluoromethyl)phenyl)morpholine-2-carboxylic acid]
6 | > 75% | ### (### is ≥75%) | < 25% | # (# is <25%) | # (# is <25%) | < 25% | < 100 nM | – | – | – | – | < 100 nM | > 1000 nM | > 1000 nM | O=C(OC(C(F)(F)F)C(F)(F)F)N1CCC2(CCCN2Cc2ccc(C(F)(F)F)c(N3CCCC3)c2)CC1 [Example 134, 1,1,1,3,3,3-Hexafluoropropan-2-yl 1-(3-(pyrrolidin-1-yl)-4-(trifluoromethyl)benzyl)-1,8-diazaspiro[4.5]decane-8-carboxylate]
7 | > 75% | # (# is <25%) | < 25% | # (# is <25%) | # (# is <25%) | < 25% | < 100 nM | – | – | – | – | < 100 nM | > 1000 nM | > 1000 nM | CN(C)C(=O)C1CCN(c2cc(C(F)(F)F)ccc2CN2CCCC23CCN(C(=O)OC(C(F)(F)F)C(F)(F)F)CC3)CC1 [Example 16, 1,1,1,3,3,3-Hexafluoropropan-2-yl 1-(2-(4-(dimethylcarbamoyl)piperidin-1-yl)-4-(trifluoromethyl)benzyl)-1,8-diazaspiro[4.5]decane-8-carboxylate]

Row | SMILES | inhibition at 1 µM ([1]; mouse proteome) | MAGL % Inh 5 mg/kg (mouse) [2] | inhibition at 1 µM ([3]; mouse proteome) | FAAH % Inh 5 mg/kg (mouse) [4] | ABHD6 % Inh 5 mg/kg (mouse) [5] | inhibition at 1 µM ([6]; mouse proteome) | IC50 [7, 8] | inhibition at 1 µM ([1]; mouse) | inhibition at 1 µM ([3]; mouse) | inhibition at 1 µM ([6]; mouse) | IC50 ([7]; human) | IC50 ([1]; mouse proteome) | IC50 ([3]; mouse proteome) | IC50 ([6]; mouse proteome)
8 | O=C(O)C1COCCN1c1cc(CN2CCCC23CCN(C(=O)OC(C(F)(F)F)C(F)(F)F)CC3)cc(C(F)(F)F)c1 (centres unmarked) [Example 200] | > 75% | ## (## is equal to or greater than 25% but less than 75%) | < 25% | # (# is <25%) | # (# is <25%) | < 25% | < 100 nM | – | – | – | – | – | – | –
9 | O=C(O)C1CCN(c2cc(Cl)cc(CN3CCCC34CCN(C(=O)OC(C(F)(F)F)C(F)(F)F)CC4)c2)CC1 [Example 122, 1-(3-Chloro-5-((8-(((1,1,1,3,3,3-hexafluoropropan-2-yl)oxy)carbonyl)-1,8-diazaspiro[4.5]decan-1-yl)methyl)phenyl)piperidine-4-carboxylic acid] | > 75% | ### (### is ≥75%) | < 25% | ## (## is equal to or greater than 25% but less than 75%) | ## (## is equal to or greater than 25% but less than 75%) | < 25% | < 100 nM | – | – | – | – | < 100 nM | > 1000 nM | > 1000 nM
10 | O=C(O)c1cc(CN2CCCC23CCN(C(=O)OC(C(F)(F)F)C(F)(F)F)CC3)ccc1C(F)(F)F [Example 179, 5-((8-((1,1,1,3,3,3-Hexafluoropropan-2-yloxy)carbonyl)-1,8-diazaspiro[4.5]decan-1-yl)methyl)-2-(trifluoromethyl)benzoic acid] | > 75% | ### (### is ≥75%) | < 25% | ## (## is equal to or greater than 25% but less than 75%) | # (# is <25%) | < 25% | < 100 nM | – | – | – | – | 100 to 1000 nM | > 1000 nM | > 1000 nM
11 | N#Cc1ccc(CN2CCCC23CCN(C(=O)OC(C(F)(F)F)C(F)(F)F)CC3)c(N2CCC(C(=O)O)CC2)c1 [Example 249] | – | ## (## is equal to or greater than 25% but less than 75%) | – | # (# is <25%) | # (# is <25%) | – | – | > 75% | < 25% | < 25% | < 100 nM | – | – | –
12 | N#Cc1cc(CN2CCCC23CCN(C(=O)OC(C(F)(F)F)C(F)(F)F)CC3)cc(N2CCC(C(=O)O)CC2)c1 [Example 210] | > 75% | ### (### is ≥75%) | < 25% | # (# is <25%) | ## (## is equal to or greater than 25% but less than 75%) | < 25% | < 100 nM | – | – | – | – | – | – | –
13 | CS(=O)(=O)C1CCN(c2cc(C(F)(F)F)ccc2CN2CCCC23CCN(C(=O)OC(C(F)(F)F)C(F)(F)F)CC3)C1 (centres unmarked) [Example 193, 1,1,1,3,3,3-Hexafluoropropan-2-yl 1-(2-(3-(methylsulfonyl)pyrrolidin-1-yl)-4-(trifluoromethyl)benzyl)-1,8-diazaspiro[4.5]decane-8-carboxylate] | > 75% | ## (## is equal to or greater than 25% but less than 75%) | < 25% | # (# is <25%) | # (# is <25%) | < 25% | < 100 nM | – | – | – | – | – | – | –
14 | CS(=O)(=O)C1CN(c2cc(C(F)(F)F)ccc2CN2CCCC23CCN(C(=O)OC(C(F)(F)F)C(F)(F)F)CC3)C1 [Example 268] | – | ## (## is equal to or greater than 25% but less than 75%) | – | # (# is <25%) | ## (## is equal to or greater than 25% but less than 75%) | – | – | > 75% | < 25% | 25 to 75% | < 100 nM | – | – | –
